# Measured values published in ChEMBL document CHEMBL5143551, “Synthesis of sp3-rich chiral bicyclo[3.3.1]nonanes for chemical space expansion and study of biological activities” (Bioorg Med Chem, 2022).
# pIC50: −log10 of the molar value. Active and inactive are the calls of the source. The rule behind the calls is not given here.
# What was measured:
# HeLa [1] = assay: Growth inhibition of human HeLa cells by MTT assay; type: functional, cell-based
# [2] = Inhibition of HIF-1 transcriptional activity in human HeLa cells transfected with hypoxia response element-dependent luciferase reporter gene under hypoxic conditions; type: cell-based
# HeLa [3] = assay: Inhibition of HIF-1-alpha protein expression in human HeLa cells at 100 uM by Western blot analysis; type: functional, cell-based
# HeLa [4] = assay: Inhibition of HIF-1 transcriptional signaling in human HeLa cells assessed as reduction in CA9 protein expression at 100 uM under hypoxia conditions by Western blot analysis; type: cell-based
# HeLa [5] = assay: Inhibition of HIF-1-alpha mRNA expression in human HeLa cells under hypoxia conditions at 100 uM by qPCR analysis; type: functional, cell-based
SMILES,"pIC50 (HeLa [1]; Homo sapiens, HeLa)","pIC50 ([2]; Homo sapiens, HeLa)",pIC50 (HeLa [1]; hela),pIC50 ([2]; hela),inhibition (HeLa [3]),inhibition (HeLa [4]),inhibition (HeLa [5])
O=C(Cc1ccccc1)O[C@@H]1CC[C@@]2(OC(=O)Cc3ccccc3)CC1[C@@H](NCc1ccccc1)[C@@H]1O[C@@H]12 (mixture of isomers),4.85,4.71,–,–,–,–,–
CC(C)CN[C@@H]1C2C[C@](OC(=O)Cc3ccccc3)(CC[C@H]2OC(=O)CC(C)C)[C@H]2O[C@@H]12 (stereo in doubt),–,–,4.49,4.33,–,–,–
CC(C)CC(=O)O[C@]12CC[C@@H](OC(=O)Cc3ccccc3)C(C1)[C@@H](NCc1ccccc1)[C@@H]1O[C@@H]12 (mixture of isomers),5.46,4.76,–,–,–,–,–
CC(C)CC(=O)O[C@@H]1CC[C@@]2(OC(=O)Cc3ccccc3)CC1[C@@H](NCc1ccccc1)[C@@H]1O[C@@H]12,4.40,4.51,–,–,–,–,–
CC(C)CC(=O)O[C@@H]1CC[C@@]2(OC(=O)CC(C)C)CC1[C@@H](NCc1ccccc1)[C@@H]1O[C@@H]12,5.03,4.61,–,–,–,–,–
CC(C)CN[C@@H]1C2C[C@](OC(=O)Cc3ccccc3)(CC[C@H]2OC(=O)Cc2ccccc2)[C@H]2O[C@@H]12,< 4.00,4.50,–,–,–,–,–
CC(C)CN[C@@H]1C2C[C@](OC(=O)Cc3ccccc3)(CC[C@H]2OC(=O)CC(C)C)[C@H]2O[C@@H]12 (stereo in doubt; 16f) [listing 1 of 2 here],–,–,–,–,Active,Active,Active
CC(C)CN[C@@H]1C2C[C@](OC(=O)Cc3ccccc3)(CC[C@H]2OC(=O)CC(C)C)[C@H]2O[C@@H]12 (stereo in doubt; 16f) [listing 2 of 2 here],–,–,4.12,4.72,–,–,–
CC(C)CN[C@@H]1C2C[C@](OC(=O)CC(C)C)(CC[C@H]2OC(=O)Cc2ccccc2)[C@H]2O[C@@H]12,4.05,4.69,–,–,Active,Active,–
CC(C)CN[C@@H]1C2C[C@](OC(=O)CC(C)C)(CC[C@H]2OC(=O)CC(C)C)[C@H]2O[C@@H]12,4.10,4.66,–,–,Active,Active,–
